Assay results reported in US9840496B2, “CD38 inhibitors and methods of treatment” (GlaxoSmithKline Intellectual Property (No.2) Limited, priority 2014, dated 2017).

These molecules were tested against T1, human CD38 (Homo sapiens, UniProt P28907) (assay: human CD38 enzyme activity colorimetric assay). Conditions: extracellular domain of human CD38, 0.4 nM CD38, 100 uM NAD+.
T1 construct: The extracellular domain of human CD38 was expressed in pichia pastoris and purified to homogeneity; made in house; host or cells: Pichia pastoris
T1 sequence (P28907 43-300 limits assumed): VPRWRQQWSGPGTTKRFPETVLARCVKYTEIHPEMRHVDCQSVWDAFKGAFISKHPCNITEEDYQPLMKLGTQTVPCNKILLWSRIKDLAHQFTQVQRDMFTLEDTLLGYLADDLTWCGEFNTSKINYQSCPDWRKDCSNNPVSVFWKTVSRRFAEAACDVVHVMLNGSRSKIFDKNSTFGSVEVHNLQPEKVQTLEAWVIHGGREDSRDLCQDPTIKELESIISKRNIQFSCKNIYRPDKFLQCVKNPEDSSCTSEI
Assay type: biochemical
Method: The extracellular domain of human CD38 was expressed in pichia pastoris and purified to homogeneity. The enzyme activity assay was performed in a low-volume 384-well plate in a total volume of 20 μL. A range of concentrations of test compound in 200 nL DMSO was delivered into the assay plate wells. Columns 6 and 18 of the plate contained DMSO with no compound and served as the high signal and low signal controls (no CD38 added), respectively. All additions of assay reagents to the plate were done using a Multidrop Combi, and the plate was shaken 3-5 seconds after each addition. CD38 (0.8 nM) was incubated with test compound in 10 μL containing 100 mM HEPES, pH 7.4, 4 mM EDTA, and 1 mM CHAPS for 30 minutes prior to initiation of the reaction. The reaction was initiated by a 10 μL addition containing 5 mM sodium acetate, pH 4.5, 1 mM CHAPS, 200 μM NAD+ and 500 uM GW323424X. The solutions for each of the two additions were prepared fresh each day from concentrated stocks of the individual components. […] Catalytic formation of this novel chromophore was followed in an Envision microplate reader by reading absorbance at two time points, typically 30 minutes apart within the first 45 minutes of the reaction. These time points were established empirically to ensure the rates determined were in a linear range of product formation. Data analysis was performed in the following way using ActivityBase XE (Abase XE). The data from the 15 and 45 minute reads was processed by performing a subtraction function of 45 minute read value minus 15 minute read value for each plate well. The resulting values for non-control wells were converted to % inhibition using the formula 100*((U−C1)/(C2−C1)) where U is the value of the test well, C1 is the average of the values of the high signal (column 6) control wells, and C2 is the average of the values of the low signal (column 18) control wells. Percent inhibition (y) was plotted versus inhibitor concentration (x), and curve fitting was performed with the following four parameter equation: y=A+((B−A)/(1+(10^x/10^C)^D)), where A is the minimum response, B is the maximum response, C is the log10IC50, and D is the Hill slope.

Row | Molecule | IC50 [nM]
1 | CC(O)CO[C@H]1CC[C@H](NC(=O)c2cc(-n3ccnc3)cc3cc[nH]c23)CC1 (stereo partly drawn) [example 7, N-((1r,4r)-4-(2-Hydroxypropoxy)cyclohexyl)-5-(1H-imidazol-1-yl)-1H-indole-7-carboxamide] | < 500
2 | C[C@@H](CS(C)(=O)=O)N[C@H]1CC[C@H](NC(=O)c2cc(-n3ccnc3)cc3cc[nH]c23)CC1 [example 16, 5-(1H-Imidazol-1-yl)-N-((1R,4r)-4-(((R)-1-(methylsulfonyl)propan-2-yl)amino)cyclohexyl)-1H-indole-7-carboxamide] | > 1000
3 | CC(O)(CO[C@H]1CC[C@H](NC(=O)c2cc(-n3ccnc3)cc3cc[nH]c23)CC1)C(F)(F)F (stereo partly drawn) [example 9] | < 500
4 | O=C(N[C@H]1CC[C@H](NCC(F)F)CC1)c1cc(-n2ccnc2)cc2cc[nH]c12 [example 12, N-((1r,4r)-4-((2,2-Difluoroethyl)amino)cyclohexyl)-5-(1H-imidazol-1-yl)-1H-indole-7-carboxamide] | < 500
5 | CC(O)(CN[C@H]1CC[C@H](NC(=O)c2cc(-n3ccnc3)cc3cc[nH]c23)CC1)C(F)(F)F (stereo partly drawn) [example 10, 5-(1H-Imidazol-1-yl)-N-((1r,4r)-4-((3,3,3-trifluoro-2-hydroxy-2-methylpropyl)amino)cyclohexyl)-1H-indole-7-carboxamide] | > 1000
6 | CC(O)CO[C@H]1CC[C@H](NC(=O)c2cc(-n3ccnc3)cc3c(Cl)c[nH]c23)CC1 (stereo partly drawn) [example 8, 3-Chloro-N-((1r,4r)-4-(2-hydroxypropoxy)cyclohexyl)-5-(1H-imidazol-1-yl)-1H-indole-7-carboxamide] | 500 to 1000
7 | CCC(O)(CN[C@H]1CC[C@H](NC(=O)c2cc(-n3ccnc3)cc3cc[nH]c23)CC1)C(F)(F)F (stereo partly drawn) [example 1, N-((1r,4r)-4-((2-Hydroxy-2-(trifluoromethyl)butyl)amino)cyclohexyl)-5-(1Himidazol-1-yl)-1H-indole-7-carboxamide] | 500 to 1000
8 | CC(C)C(O)CO[C@H]1CC[C@H](NC(=O)c2cc(-n3ccnc3)cc3cc[nH]c23)CC1 (stereo partly drawn) [example 14, N-((1r,4r)-4-(2-Hydroxy-3-methylbutoxy)cyclohexyl)-5-(1H-imidazol-1-yl)-1H-indole-7-carboxamide] | < 500
9 | CC(O)(C(=O)N[C@H]1CC[C@H](NC(=O)c2cc(-n3ccnc3)cc3cc[nH]c23)CC1)C(F)(F)F (stereo partly drawn) [example 11, 5-(1H-Imidazol-1-yl)-N-((1r,4r)-4-(3,3,3-trifluoro-2-hydroxy-2-methylpropanamido)cyclohexyl)-1H-indole-7-carboxamide] | < 500
10 | CNC(=O)[C@H]1CC[C@H](NC(=O)c2cc(-n3ccnc3)cc3cc[nH]c23)CC1 [example 4, 5-(1H-Imidazol-1-yl)-N-((1s,4s)-4-(methylcarbamoyl)cyclohexyl)-1H-indole-7-carboxamide] | < 500
11 | C[C@](CO)(N[C@H]1CC[C@H](NC(=O)c2cc(-n3ccnc3)cc3cc[nH]c23)CC1)C(F)(F)F [example 2, 5-(1H-Imidazol-1-yl)-N-((1R,4r)-4-(((R)-1,1,1-trifluoro-3-hydroxy-2-methylpropan-2-yl)amino)cyclohexyl)-1H-indole-7-carboxamide] | 500 to 1000
12 | O=C(N[C@H]1CC[C@H](NCC(F)F)CC1)c1cc(-n2ccnc2)cc2c(Cl)c[nH]c12 [example 13, 3-Chloro-N-((1r,4r)-4-((2,2-difluoroethyl)amino)cyclohexyl)-5-(1H-imidazol-1-yl)-1H-indole-7-carboxamide] | > 1000
13 | CC(O)(COC1CCC(NC(=O)c2cc(-n3ccnc3)cc3cc[nH]c23)CC1)C1CC1 (stereo not drawn) [example 15, N-((1r,4r)-4-(2-Cyclopropyl-2-hydroxypropoxy)cyclohexyl)-5-(1H-imidazol-1-yl)-1H-indole-7-carboxamide] | < 500
14 | CC(C)c1c[nH]c2c(C(=O)N[C@H]3CC[C@H](OCC(C)(C)O)CC3)cc(-n3ccnc3)cc12 [example 3, N-((1r,4r)-4-(2-Hydroxy-2-methylpropoxy)cyclohexyl)-5-(1H-imidazol-1-yl)-3-isopropyl-1H-indole-7-carboxamide] | > 1000
15 | N-((1r,4r)-4-(2-Hydroxy-2-methylpropoxy)cyclohexyl)-5-(1H-imidazol-1-yl)-1H-indole-7-carboxamide [example 6] | < 500
